The subject of the assay is MV-4-11 cells. Nature of the assay: Gene expression microarray analysis (Affymetrix PrimeView) and GSEA. In kind it is cell-based, human. Set-up: RFU PODN (11730768_x_at) / Fold change /veh PODN (11730768_x_at) / RFU LINC00158 (11744669_a_at) / Fold change /veh LINC00158 (11744669_a_at) / RFU DUSP10 (11751237_a_at) / Fold change /veh DUSP10 (11751237_a_at) / RFU ID3 (11757404_x_at) / Fold change /veh ID3 (11757404_x_at) / RFU PLEKHG5 (11737974_s_at) / Fold change /veh PLEKHG5 (11737974_s_at) / RFU LRRC4B (11730491_at) / Fold change /veh LRRC4B (11730491_at) / RFU GIMAP4 (11747438_a_at) / Fold change /veh GIMAP4 (11747438_a_at) / RFU KRT8 (11758183_x_at) / Fold change /veh KRT8 (11758183_x_at) / RFU CNN1 (11734310_a_at) / Fold change /veh CNN1 (11734310_a_at) / RFU VPS37D (11726825_at) / Fold change /veh VPS37D (11726825_at) / RFU C10orf10 (11716522_x_at) / Fold change /veh C10orf10 (11716522_x_at) / RFU KIR2DL2 /// KIR2DL4 /// KIR2DL5A /// KIR2DL5B /// KIR2DS1 /// KIR2DS2 /// KIR2DS3 /// KIR2DS4 /// KIR3DL3 /// KIR3DL3 /// KIR3DS1 (11738374_at) / Fold change /veh KIR2DL2 /// KIR2DL4 /// KIR2DL5A /// KIR2DL5B /// KIR2DS1 /// KIR2DS2 /// KIR2DS3 /// KIR2DS4 /// KIR3DL3 /// KIR3DL3 /// KIR3DS1 (11738374_at) / RFU C1QL1 (11718748_at) / Fold change /veh C1QL1 (11718748_at) / RFU TMPRSS4 (11747572_a_at) / Fold change /veh TMPRSS4 (11747572_a_at) / RFU HAMP (11756126_x_at) / Fold change /veh HAMP (11756126_x_at) / RFU RNFT2 (11725882_a_at) / Fold change /veh RNFT2 (11725882_a_at) / RFU NR4A2 (11747474_a_at) / Fold change /veh NR4A2 (11747474_a_at) / RFU ABCC12 (11746883_a_at) / Fold change /veh ABCC12 (11746883_a_at) / RFU TMEM136 (11760407_x_at) / Fold change /veh TMEM136 (11760407_x_at) / RFU CLDN22 /// WWC2 (11732394_at) / Fold change /veh CLDN22 /// WWC2 (11732394_at) / RFU HLA-DPB1 (11760878_x_at) / Fold change /veh HLA-DPB1 (11760878_x_at) / RFU SPINT1 (11716480_a_at) / Fold change /veh SPINT1 (11716480_a_at) / RFU GAP43 (11754022_s_at) / Fold change /veh GAP43 (11754022_s_at) / RFU A4GNT (11735810_at) / Fold change /veh A4GNT (11735810_at) / RFU PRB3 (11715151_x_at) / Fold change /veh PRB3 (11715151_x_at) / RFU TUBB4B (11761932_at) / Fold change /veh TUBB4B (11761932_at) / RFU CAPN14 (11732068_a_at) / Fold change /veh CAPN14 (11732068_a_at) / RFU TMCC2 (11721928_a_at) / Fold change /veh TMCC2 (11721928_a_at) / RFU IRGQ (11745062_a_at) / Fold change /veh IRGQ (11745062_a_at) / RFU FAM174B (11720279_a_at) / Fold change /veh FAM174B (11720279_a_at) / RFU TMPRSS4 (11748680_a_at) / Fold change /veh TMPRSS4 (11748680_a_at) / RFU FAM212B (11763350_a_at) / Fold change /veh FAM212B (11763350_a_at) / RFU PLEKHG5 (11743358_a_at) / Fold change /veh PLEKHG5 (11743358_a_at) / RFU ZSCAN30 (11745921_a_at) / Fold change /veh ZSCAN30 (11745921_a_at) / RFU CMKLR1 (11741424_a_at) / Fold change /veh CMKLR1 (11741424_a_at) / RFU LOC101060620 /// MAPK8IP1 (11723275_at) / Fold change /veh LOC101060620 /// MAPK8IP1 (11723275_at) / RFU SPTSSB (11747773_x_at) / Fold change /veh SPTSSB (11747773_x_at) / RFU PRSS12 (11739890_at) / Fold change /veh PRSS12 (11739890_at) / RFU BIN1 (11741810_x_at) / Fold change /veh BIN1 (11741810_x_at) / RFU WNT11 (11732464_a_at) / Fold change /veh WNT11 (11732464_a_at) / RFU C10orf10 (11716521_a_at) / Fold change /veh C10orf10 (11716521_a_at) / RFU C5orf56 (11738089_at) / Fold change /veh C5orf56 (11738089_at) / RFU CYB561 (11721691_x_at) / Fold change /veh CYB561 (11721691_x_at) / RFU ANKRD19P (11752326_a_at) / Fold change /veh ANKRD19P (11752326_a_at) / RFU OR2T12 /// OR2T33 /// OR2T8 (11738714_s_at) / Fold change /veh OR2T12 /// OR2T33 /// OR2T8 (11738714_s_at) / RFU VCAN (11748164_a_at) / Fold change /veh VCAN (11748164_a_at) / RFU JSRP1 (11732532_at) / Fold change /veh JSRP1 (11732532_at) / RFU KRTAP10-11 (11738290_x_at) / Fold change /veh KRTAP10-11 (11738290_x_at) / RFU MYO3A (11730013_a_at) / Fold change /veh MYO3A (11730013_a_at) / RFU EBF3 (11725865_a_at) / Fold change /veh EBF3 (11725865_a_at) / RFU CAMK2N1 (11719241_x_at) / Fold change /veh CAMK2N1 (11719241_x_at) / RFU C5orf56 (11738088_a_at) / Fold change /veh C5orf56 (11738088_a_at) / RFU OLFML3 (11715873_a_at) / Fold change /veh OLFML3 (11715873_a_at) / RFU LOC100653217 /// NTM (11731650_a_at) / Fold change /veh LOC100653217 /// NTM (11731650_a_at) / RFU MAPK11 (11762145_a_at) / Fold change /veh MAPK11 (11762145_a_at) / RFU FIZ1 (11724087_x_at) / Fold change /veh FIZ1 (11724087_x_at) / RFU OASL (11726364_x_at) / Fold change /veh OASL (11726364_x_at) / RFU SOX15 (11748057_x_at) / Fold change /veh SOX15 (11748057_x_at) / RFU CD79A (11719716_a_at) / Fold change /veh CD79A (11719716_a_at) / RFU HIST1H1D (11736915_at) / Fold change /veh HIST1H1D (11736915_at) / RFU CASKIN2 (11723855_a_at) / Fold change /veh CASKIN2 (11723855_a_at) / RFU LOC730098 (11760151_x_at) / Fold change /veh LOC730098 (11760151_x_at) / RFU OR4N2 (11742367_at) / Fold change /veh OR4N2 (11742367_at) / RFU PRRT2 (11749266_a_at) / Fold change /veh PRRT2 (11749266_a_at) / RFU SNX32 (11753110_a_at) / Fold change /veh SNX32 (11753110_a_at) / RFU CDHR5 (11726645_a_at) / Fold change /veh CDHR5 (11726645_a_at) / RFU RCAN1 (11760418_a_at) / Fold change /veh RCAN1 (11760418_a_at) / RFU FAM167A (11723789_a_at) / Fold change /veh FAM167A (11723789_a_at) / RFU FAM26E (11764081_at) / Fold change /veh FAM26E (11764081_at) / RFU ISYNA1 (11749810_s_at) / Fold change /veh ISYNA1 (11749810_s_at) / RFU ACY1 (11761880_at) / Fold change /veh ACY1 (11761880_at) / RFU 11764098_at / Fold change /veh 11764098_at / RFU SAMD14 (11745864_x_at) / Fold change /veh SAMD14 (11745864_x_at) / RFU NPB (11741838_a_at) / Fold change /veh NPB (11741838_a_at) / RFU TMPRSS6 (11731388_a_at) / Fold change /veh TMPRSS6 (11731388_a_at) / RFU KRTAP10-2 (11738614_at) / Fold change /veh KRTAP10-2 (11738614_at) / RFU ARHGAP8 /// PRR5-ARHGAP8 (11727945_x_at) / Fold change /veh ARHGAP8 /// PRR5-ARHGAP8 (11727945_x_at) / RFU KRTAP5-7 /// NADSYN1 (11734609_at) / Fold change /veh KRTAP5-7 /// NADSYN1 (11734609_at) / RFU RASL12 (11751679_a_at) / Fold change /veh RASL12 (11751679_a_at) / RFU CDKN2B (11736163_a_at) / Fold change /veh CDKN2B (11736163_a_at) / RFU PRF1 (11729649_at) / Fold change /veh PRF1 (11729649_at) / RFU, ZNF638 /// ZNF638-IT1 / Fold change vs veh, ZNF638 /// ZNF638-IT1 / RFU, PANK3 / Fold change vs veh, PANK3 / RFU, SH3YL1 / Fold change vs veh, SH3YL1 / RFU, ZEB2 / Fold change vs veh, ZEB2 / RFU, NRIP1 / Fold change vs veh, NRIP1 / RFU, PTTG1IP / Fold change vs veh, PTTG1IP / RFU, CAPN2 / Fold change vs veh, CAPN2 / RFU, MED14 / Fold change vs veh, MED14 / RFU, SNORA58 / Fold change vs veh, SNORA58 / RFU, C1orf63 / Fold change vs veh, C1orf63 / RFU, LRRFIP1 / Fold change vs veh, LRRFIP1 / RFU, NDUFAF7 / Fold change vs veh, NDUFAF7 / RFU, SLC12A2 / Fold change vs veh, SLC12A2 / RFU, IBTK / Fold change vs veh, IBTK / RFU, ESF1 / Fold change vs veh, ESF1 / Fold change vs veh, TMEM50B / RFU, TAOK1 / Fold change vs veh, TAOK1 / RFU, ACBD3 / Fold change vs veh, ACBD3 / RFU, TMA16 / Fold change vs veh, TMA16 / RFU, RWDD3 / Fold change vs veh, RWDD3 / RFU, BCAT1 / Fold change vs veh, BCAT1 / RFU, EDEM3 / Fold change vs veh, EDEM3 / RFU, TMEM33 / Fold change vs veh, TMEM33 / RFU, WDR75 / Fold change vs veh, WDR75 / RFU, AHCTF1 / Fold change vs veh, AHCTF1 / RFU, TFRC / Fold change vs veh, TFRC / RFU, ZDHHC17 / Fold change vs veh, ZDHHC17 / RFU, NOM1 / Fold change vs veh, NOM1 / RFU, ARL8B / Fold change vs veh, ARL8B / RFU, ZBTB11 / Fold change vs veh, ZBTB11 / RFU, TAMM41 / Fold change vs veh, TAMM41 / RFU, KIAA1704 /// LOC100996395 / Fold change vs veh, KIAA1704 /// LOC100996395 / RFU, ING1 / Fold change vs veh, ING1 / RFU, TRMT61B / Fold change vs veh, TRMT61B / RFU, FUBP3 / Fold change vs veh, FUBP3 / RFU, TP53 / Fold change vs veh, TP53 / RFU, TNKS2 / Fold change vs veh, TNKS2 / RFU, ZFP14 / Fold change vs veh, ZFP14 / RFU, ACTR2 / Fold change vs veh, ACTR2 / RFU, PPP3R1 / Fold change vs veh, PPP3R1 / RFU, PIK3R1 / Fold change vs veh, PIK3R1 / RFU, HNRNPA1 / Fold change vs veh, HNRNPA1 / RFU, RNF170 / Fold change vs veh, RNF170 / RFU, ZNF28 / Fold change vs veh, ZNF28 / RFU, RNGTT / Fold change vs veh, RNGTT / RFU, OGT / Fold change vs veh, OGT / RFU, BRD1 / Fold change vs veh, BRD1 / RFU, MARS / Fold change vs veh, MARS / RFU, ZNF655 / Fold change vs veh, ZNF655 / RFU, FAHD1 / Fold change vs veh, FAHD1 / RFU, BDP1 / Fold change vs veh, BDP1 / RFU, LRRCC1 / Fold change vs veh, LRRCC1 / RFU, ARID1A / Fold change vs veh, ARID1A / RFU, ZNF146 / Fold change vs veh, ZNF146 / RFU, ZNF330 / Fold change vs veh, ZNF330 / RFU, GPN3 / Fold change vs veh, GPN3 / RFU, C9orf123 / Fold change vs veh, C9orf123 / RFU, N4BP2L2 / Fold change vs veh, N4BP2L2 / RFU, ARFIP1 / Fold change vs veh, ARFIP1 / RFU, FAM179B / Fold change vs veh, FAM179B / RFU, BCL10 / Fold change vs veh, BCL10 / RFU, UHRF1BP1L / Fold change vs veh, UHRF1BP1L / RFU, BET1 / Fold change vs veh, BET1 / RFU, CNOT2 / Fold change vs veh, CNOT2 / RFU, ZNF268 / Fold change vs veh, ZNF268 / Fold change vs veh, ZNF507 / RFU, DGCR2 / Fold change vs veh, DGCR2 / RFU, WDSUB1 / Fold change vs veh, WDSUB1 / Fold change vs veh, HSP90B1 /// MIR3652 / RFU, ADSS / Fold change vs veh, ADSS / RFU, GK / Fold change vs veh, GK / RFU, ZNF148 / Fold change vs veh, ZNF148 / RFU, TAF9 / Fold change vs veh, TAF9 / RFU, SLC1A5 / Fold change vs veh, SLC1A5 / RFU, SLMO2 / Fold change vs veh, SLMO2 / RFU, ABCC4 / Fold change vs veh, ABCC4 / RFU, LOC101060439 /// RAP1B / Fold change vs veh, LOC101060439 /// RAP1B / RFU, RFX7 / Fold change vs veh, RFX7 / RFU, GTPBP10 / Fold change vs veh, GTPBP10 / RFU, CNEP1R1 / Fold change vs veh, CNEP1R1 / RFU, BIVM-ERCC5 /// ERCC5 / Fold change vs veh, BIVM-ERCC5 /// ERCC5 / RFU, ILF3 / Fold change vs veh, ILF3 / RFU 11762660_at / Fold change /veh 11762660_at / RFU VCAN (11757783_s_at) / Fold change /veh VCAN (11757783_s_at) / RFU DDX43 (11728927_at) / Fold change /veh DDX43 (11728927_at) / RFU KRT8 (11758188_x_at) / Fold change /veh KRT8 (11758188_x_at) / RFU NKD1 (11759106_at) / Fold change /veh NKD1 (11759106_at) / RFU SRD5A1 (11742802_a_at) / Fold change /veh SRD5A1 (11742802_a_at) / RFU TPSAB1 /// TPSB2 (11721975_s_at) / Fold change /veh TPSAB1 /// TPSB2 (11721975_s_at) / RFU GSTM3 (11746129_a_at) / Fold change /veh GSTM3 (11746129_a_at) / RFU IL23R (11737362_x_at) / Fold change /veh IL23R (11737362_x_at) / RFU TMEM51 (11727254_a_at) / Fold change /veh TMEM51 (11727254_a_at) / RFU PIWIL2 (11732686_x_at) / Fold change /veh PIWIL2 (11732686_x_at) / RFU ORM1 (11744905_x_at) / Fold change /veh ORM1 (11744905_x_at) / RFU CCDC152 (11743942_at) / Fold change /veh CCDC152 (11743942_at) / RFU ECM1 (11717891_a_at) / Fold change /veh ECM1 (11717891_a_at) / RFU IL23R (11748794_a_at) / Fold change /veh IL23R (11748794_a_at) / RFU TNFAIP8L3 (11732012_x_at) / Fold change /veh TNFAIP8L3 (11732012_x_at) / RFU MBOAT4 (11741988_at) / Fold change /veh MBOAT4 (11741988_at) / RFU 11764193_at / Fold change /veh 11764193_at / RFU TMEM53 (11763286_at) / Fold change /veh TMEM53 (11763286_at) / RFU MAGEB2 (11727129_at) / Fold change /veh MAGEB2 (11727129_at) / RFU TMEM200A (11744735_a_at) / Fold change /veh TMEM200A (11744735_a_at) / RFU CCDC152 (11751479_a_at) / Fold change /veh CCDC152 (11751479_a_at) / RFU FAM211A (11726209_a_at) / Fold change /veh FAM211A (11726209_a_at) / RFU RGS16 (11746705_a_at) / Fold change /veh RGS16 (11746705_a_at) / RFU VCAN (11755009_s_at) / Fold change /veh VCAN (11755009_s_at) / RFU RHOB (11743442_s_at) / Fold change /veh RHOB (11743442_s_at) / RFU RGS16 (11720943_a_at) / Fold change /veh RGS16 (11720943_a_at) / RFU RGS16 (11720944_at) / Fold change /veh RGS16 (11720944_at) / RFU, VPS4B / Fold change vs veh, VPS4B / RFU, CREB1 / Fold change vs veh, CREB1 / RFU, DNAJC13 / Fold change vs veh, DNAJC13 / RFU, GNAQ / Fold change vs veh, GNAQ / RFU, CDK5R1 / Fold change vs veh, CDK5R1 / RFU, ZRANB3 / Fold change vs veh, ZRANB3 / RFU, CUL4A / Fold change vs veh, CUL4A / RFU, CCNY / Fold change vs veh, CCNY / RFU, UFL1 / Fold change vs veh, UFL1 / RFU, COG3 / Fold change vs veh, COG3 / RFU, DIAPH2 / Fold change vs veh, DIAPH2 / RFU, SKA2 / Fold change vs veh, SKA2 / RFU, AFF3 / Fold change vs veh, AFF3 / RFU, LMF1 / Fold change vs veh, LMF1 / RFU, IPO11 / Fold change vs veh, IPO11 / RFU, DFFB / Fold change vs veh, DFFB / RFU, FOXP1 / Fold change vs veh, FOXP1 / RFU, CARD8 / Fold change vs veh, CARD8 / RFU, STRN3 / Fold change vs veh, STRN3 / RFU, ADK / Fold change vs veh, ADK / RFU, RASSF2 / Fold change vs veh, RASSF2 / RFU, WIPF1 / Fold change vs veh, WIPF1 / RFU, LARP1B / Fold change vs veh, LARP1B / RFU, RASA1 / Fold change vs veh, RASA1 / RFU, RB1 / Fold change vs veh, RB1 / RFU, PPFIA1 / Fold change vs veh, PPFIA1 / RFU, MAT2A / Fold change vs veh, MAT2A / RFU, CCT5 / Fold change vs veh, CCT5 / RFU, WDR92 / Fold change vs veh, WDR92 / RFU, CUX1 / Fold change vs veh, CUX1 / RFU, TTC7A / Fold change vs veh, TTC7A / RFU, TMEM135 / Fold change vs veh, TMEM135 / RFU, DEPTOR / Fold change vs veh, DEPTOR / RFU, CPM / Fold change vs veh, CPM / RFU, DNAJB6 / Fold change vs veh, DNAJB6 / RFU, CACNA2D3 / Fold change vs veh, CACNA2D3 / RFU, DTX4 / Fold change vs veh, DTX4 / RFU, TFCP2 / Fold change vs veh, TFCP2 / RFU, GMCL1 /// GMCL1P1 / Fold change vs veh, GMCL1 /// GMCL1P1 / RFU, AEBP2 / Fold change vs veh, AEBP2 / RFU, SNHG1 /// SNORD22 /// SNORD25 /// SNORD26 /// SNORD27 /// SNORD28 /// SNORD29 /// SNORD31 / Fold change vs veh, SNHG1 /// SNORD22 /// SNORD25 /// SNORD26 /// SNORD27 /// SNORD28 /// SNORD29 /// SNORD31 / Fold change (Aza/veh), C12orf56 (ProbeSet 11735607_a_at) / Fold change (ACY-1035/veh), C12orf56 (ProbeSet 11735607_a_at) / Fold change (Aza/veh), FGFR1OP (ProbeSet 11751329_s_at) / Fold change (ACY-1035/veh), FGFR1OP (ProbeSet 11751329_s_at) / Fold change (Aza/veh), VPS36 (ProbeSet 11739960_a_at) / Fold change (ACY-1035/veh), VPS36 (ProbeSet 11739960_a_at) / RFU SYPL1 (11715823_x_at) / Fold change /veh SYPL1 (11715823_x_at) / RFU IGFBP7 (11715501_s_at) / Fold change /veh IGFBP7 (11715501_s_at) / RFU REEP3 (11722064_at) / Fold change /veh REEP3 (11722064_at) / RFU IGLL1 (11728026_x_at) / Fold change /veh IGLL1 (11728026_x_at): dose or concentration left out as unconfirmed. The note with it: MV-4-11 cells, 48 hours.

Take `Nc1ccc(-c2cccs2)cc1NC(=O)c1ccc2c(c1)cc(C1CC1)n2CCN1CCOCC1` [ACY-1035]: the “RFU IGLL1 (11728026_x_at)” value was 5.54 RFU.

The record behind these values is article PMC5218480 (PLoS ONE, 2017).
